Measured values: patent EP0492930A2, “Transdermal delivery of dobutamine” (ELI LILLY AND COMPANY, priority 1990, dated 1992)

System: male beagle dogs
Assay: In vivo transdermal delivery: cardiac contractility change in anesthetized dogs
Protocol: To corroborate the in vitro results obtained using formulations of the present invention, the ability of the present formulation to provide transdermal delivery of dobutamine lactobionate through the skin of a living dog was also studied.
Two male beagle dogs were anesthetized with 100 mg/kg of sodium phenobarbitol and prepared for monitoring of electrocardiogram, contractile tension, heart rate and mean arterial pressure. Dobutamine lactobionate was administered by an i.v. bolus (4, 8 and 16 mcg/kg). After each animal's response returned to baseline, 1.0 ml of a formulation containing 218.9 mg of dobutamine lactobionate (100 mg equivalents of dobutamine free base), 2.0 mg of sodium bisulfite, 10.0 mg of n-decyl methyl sulfoxide in 1 ml of water was applied to a 25 cm² shaved area in the groin-abdominal region of each dog. Cardiac contractility changes in each dog were then monitored for the next 3 to 5 hours.
Column 2 discloses the time elapsed from the time the formulation was applied and Column 3 discloses the percent change in contractility (from baseline) observed at the time value shown in Column 2.

## CC(CCc1ccc(O)cc1)NCCc1ccc(O)c(O)c1 (racemic) [dobutamine lactobionate, (±)-N-[3-(4-hydroxyphenyl)-1-methylpropyl]-2-(3,4-dihydroxyphenyl)ethylamine]
Method I (applied directly to skin), 20 min
  % Change In Contractility: 30%
Method I (applied directly to skin), 30 min
  % Change In Contractility: 35%
Method I (applied directly to skin), 60 min
  % Change In Contractility: 48%
Method I (applied directly to skin), 90 min
  % Change In Contractility: 21%
Method I (applied directly to skin), 120 min
  % Change In Contractility: 16%
Method I (applied directly to skin), 180 min
  % Change In Contractility: 0%
Method I (applied directly to skin, covered with plastic film), 10 min, 1.0 ml formulation (218.9 mg lactobionate, 10.0 mg n-decyl methyl sulfoxide) on 25 cm² shaved skin, change from baseline
  % Change In Contractility: 16%
Method II (cellulose triacetate polymer patch), 10 min, 1.0 ml formulation (218.9 mg lactobionate, 10.0 mg n-decyl methyl sulfoxide), change from baseline
  % Change In Contractility: 10%
Method II (patch), 20 min
  % Change In Contractility: 26%
Method II (patch), 30 min
  % Change In Contractility: 24%
Method II (patch), 60 min
  % Change In Contractility: 36%
Method II (patch), 90 min
  % Change In Contractility: 41%
Method II (patch), 120 min
  % Change In Contractility: 33%
Method II (patch), 150 min
  % Change In Contractility: 25%
Method II (patch), 180 min
  % Change In Contractility: 27%
Method II (patch), 210 min
  % Change In Contractility: 22%
Method II (patch), 240 min
  % Change In Contractility: 9%
Method II (patch), 270 min
  % Change In Contractility: 9%
Method II (patch), 300 min
  % Change In Contractility: 11%
